Laboratory results published in patent US6121269A, “Reduction of hair growth” (priority 1999, dated 2000).
Where two headings read alike, the source gives them in different places.

Tests used:
protein-tyrosine kinase = experiment: Protein-Tyrosine Kinase Assay (human skin/hair follicle extract, Calbiochem kit); format: biochemical; details: inhibitor 1 mM, human skin supernatant fraction
Procedure: Protein-tyrosine kinase activity was measured in human skin samples rich in hair follicles using a commercially available assay kit (Calbiochem). Human skin obtained from a local plastic surgeon as a by-product of face-lift procedures was homogenized in four volumes of the extraction buffer containing 20 mM Tris-HCL, pH7.4, 50 mM NaCl, 1 mM EDTA, 1 mM EGTA, 5 mM mercaptoethanol. The samples were centrifuged for 10 min at 16,000×g to remove the membrane/organelle fractions. The supernatant fraction was used for the tyrosine kinase assay. Adding 25 ml of the 20× concentrated solution to 475 ml of deionized water and mixing made a working solution of plate wash buffer. The kinase buffer was prepared by adding 50 ul/ml of the 2 mM ATP stock solution to 1× sample buffer without 2-mercatoethanol. (90 ul of the kinase buffer/well).For the enzyme assay, 10 ul of each sample was added to a well. 10 ul of Abl standard, as positive controls, were added to a well. The kinase reaction was started by adding 90 ul of 1× kinase buffer/well and incubated at room temp for 30 minutes. The contents of each well was washed six times with 1× wash buffer, 100 ul of PY20 antibody diluted 1:200 with 1× Sample/kinase reaction buffer (without ATP) (15 ul to 3 ml) were added and the combination incubated for 30 minutes. The test solutions were washed with wash buffer, and 100 ul of substrate solution were added to each and incubated in the dark for 6 minutes. 100 ul of stop solution were added, and the UV absorbance read at 450 nm. The increase in UV absorbance at 450 nm provided a measure of the enzyme activity.
The ability of protein-tyrosine kinase inhibitors to inhibit the skin/hair follicle enzyme activity was determined by measuring protein-tyrosine kinase activity in the presence and absence of the inhibitor. For enzyme inhibition studies, the inhibitor was added to the reaction mixture at a concentration of 1 mM following addition of the enzyme sample.

human hair follicles = experiment: Human Hair Follicle Growth Assay; format: cell-based
Procedure: Human hair follicles in growth phase (anagen) were isolated from face-lift tissue under a dissecting scope using a scalpel and watchmakers forceps. The skin was sliced into thin strips exposing 2-3 rows of follicles that could readily be dissected. […] Hair follicles were videorecorded in the 24-well plates under the dissecting scope under a power of 20×. Hair follicle lengths were assessed using an image analysis software system (Computer Eyes and NIH Image). Typically, initial recordings were made on day 0 (day follicles were placed in culture), and on days 1, 4, and 7.
The effect of five protein-tyrosine kinase inhibitors on human hair follicle growth was determined by exposing the isolated follicles to the enzyme inhibitors. The hair follicle lengths were determined before and after the inhibitor treatment.
In another experiment isolated hair follicles were exposed to either 1 mM or 0.01 mM concentration of the protein-tyrosine kinase inhibitor erbstatin, and the hair growth rate was compared to control. Measurements were made at days 0, 1 and 4.

[1] = isolated human follicles, inhibitor 50 μM
[2] = isolated human follicles, inhibitor 500 μM
[3] = isolated human follicles, inhibitor 500 μM, vs control
[4] = isolated human follicles, inhibitor 250 μM

## CC(=O)OCOC(c1ccc2ccccc2c1)P(=O)(OCOC(C)=O)OCOC(C)=O (stereo not drawn) [HNMPA(AM)3, hydroxy-2-naphthalenylmethylphosphonic acid tris acetoxymethyl ester]
protein-tyrosine kinase
  % Inhibition (protein-tyrosine kinase activity): 66%

## N#CC(=Cc1ccc(O)c(O)c1)C(N)=S [Tryphostin A47, α-cyano-(3,4-dihydroxy)thiocinnamide]
protein-tyrosine kinase
  % Inhibition (protein-tyrosine kinase activity): 16%

## CO[C@H]1[C@@H](OC)C[C@H](C)[C@@H](OC)C2=CC(=O)C=C(NC(=O)/C(C)=C/C=C\[C@H](OC)[C@@H](OC(N)=O)/C(C)=C/[C@@H]1C)C2=O [Herbimycin, herbimycin A]
protein-tyrosine kinase
  % Inhibition (protein-tyrosine kinase activity): 37%

## O=C(O)c1cc(N(Cc2ccccc2O)Cc2cc(O)ccc2O)ccc1O [Lavendustin A, lavendustin A]
Human hair follicles; [1]
  Hair Growth: 0 mm
  Post-treatment hair follicle length: 3.5 ± .12 mm
Human hair follicles; isolated human follicles, inhibitor 50 μM, vs control
  inhibition at 50 µM: 100%
protein-tyrosine kinase
  % Inhibition (protein-tyrosine kinase activity): 59%

## COC(=O)/C=C/c1ccc(O)c(O)c1 [methyl caffeate]
Human hair follicles; [2]
  Hair Growth: 0.6 mm
  Post-treatment hair follicle length: 4.1 ± .17 mm
Human hair follicles; [3]
  inhibition at 500 µM: 40%
protein-tyrosine kinase
  % Inhibition (protein-tyrosine kinase activity): 100%

## COc1cc2ncnc(Nc3cccc(Cl)c3)c2cc1OC [Tryphostin AG 1478, 4-(3-Chloroanilino)-6,7-dimethoxyquinazoline]
Human hair follicles; Homo sapiens, read-out: % Inhibition (hair growth)
  inhibition at 250 µM: 40%
Human hair follicles; [4]
  Hair Growth: 0.6 mm
  Post-treatment hair follicle length: 3.8 ± .19 mm

## N#CC(=Cc1ccc(O)cc1)C(N)=C(C#N)C#N [Tryphostin A48, 2-amino-4-(4'-hydroxyphenyl)-1,1,3-tricyanobuta-1,3-diene]
Human hair follicles; [2]
  Hair Growth: 0.1 mm
  Post-treatment hair follicle length: 3.3 ± .16 mm
Human hair follicles; [3]
  inhibition at 500 µM: 91%

## O=CN/C=C/c1cc(O)ccc1O [Erbstatin, erbstatin]
Human hair follicles; 0.01 mM
  Posttreatment (Day-1) Growth: 0.1 mm
  Posttreatment (Day-1) Length: 3.1 ± .20 mm
  Posttreatment (Day-4) Growth: 0.8 mm
  Posttreatment (Day-4) Length: 3.8 ± .29 mm
Human hair follicles; 1 mM
  Posttreatment (Day-1) Growth: 0.0 mm
  Posttreatment (Day-1) Length: 3.0 ± .17 mm
  Posttreatment (Day-4) Growth: 0.3 mm
  Posttreatment (Day-4) Length: 3.3 ± .15 mm
Human hair follicles; Homo sapiens, 24 h, 0.01 mM, day 1, vs control, read-out: Posttreatment (Day-1) Inhibition
  inhibition at 10 µM: 83%
Human hair follicles; Homo sapiens, 24 h, 1 mM, day 1, vs control, read-out: Posttreatment (Day-1) Inhibition
  inhibition at 1000 µM: 100%
Human hair follicles; Homo sapiens, 96 h, 0.01 mM, day 4, vs control, read-out: Posttreatment (Day-4) Inhibition
  inhibition at 10 µM: 11%
Human hair follicles; Homo sapiens, 96 h, 1 mM, day 4, vs control, read-out: Posttreatment (Day-4) Inhibition
  inhibition at 1000 µM: 67%
Human hair follicles; [2]
  Hair Growth: 0.3 mm
  Post-treatment hair follicle length: 3.9 ± .10 mm
Human hair follicles; [3]
  inhibition at 500 µM: 73%

## N-acetyl-Asp-Tyr-(2-malonyl)-Val-Pro-Met-Leu-NH2
protein-tyrosine kinase
  % Inhibition (protein-tyrosine kinase activity): 83%
